Where two headings read alike, the source gives them in different places.
Columns and labels:
[1] = test system: Staph. aureus 29213; experiment: MIC, quality control strain; type: cell-based; conditions: for MIC: Staphylococcus aureus, read-out: MIC Values
Outline: (§1)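 MICs determined by NCCLS agar dilution or microbroth dilution on clinical isolates, with Staph. aureus 29213 as quality control strain. Synergy by agar dilution checkerboard; FIC computed as MIC of drug in combination divided by MIC alone, summed into FIC index.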

[2] = test system: MRSA strains; experiment: MIC by agar dilution or microbroth dilution method (NCCLS); type: cell-based, Staph. aureus; conditions: for MIC: Staphylococcus aureus
Outline: as §1

[3] = test system: VRSA strains; experiment: MIC by agar dilution or microbroth dilution method (NCCLS), VRSA strains; type: cell-based, Staph. aureus; conditions: VRSA strains (n = 10); for MIC: Staphylococcus aureus
Outline: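 Clinical isolates from human infections, including VRSA strains from five countries, with S. aureus 29213 as QC strain. MICs by NCCLS agar dilution or microbroth dilution; combination synergy by agar dilution checkerboard, expressed as FIC index from MIC in combination over MIC alone.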

`CC1(C)SC2C(NC(=O)C(N)c3ccccc3)C(=O)N2C1C(=O)O` (stereo not drawn) [ABPC, α-aminobenzylpenicillin] gave an MIC ([1]; ATCC29213, strain ATCC 29213, control sample (Ex. 26)) of 0.5 µg/mL, an MIC ([1]; ATCC29213, strain ATCC29213, control sample (Ex. 37)) of 0.25 µg/mL and an MIC ([2]; MRSA / NCTC 10442, strain NCTC 10442, read-out: MIC Values) of under 128 µg/mL. For the same compound, the MIC ([2]; MRSA, MRSA strains (n = 38), read-out: MICs 50%) was 16 µg/mL, the MIC ([2]; MRSA, MRSA strains (n = 38), read-out: MICs 90%) was 64 µg/mL and the MIC ([2]; MRSA, strain 85/2082, read-out: MIC Values) was 32 µg/mL. The MIC ([2]; MRSA, strain 99.3700W, read-out: MIC Values) was 32 µg/mL, the MIC ([2]; MRSA, strain 99.3759V, read-out: MIC Values) was 64 µg/mL and the MIC ([2]; MRSA, strain AMC 11094, read-out: MIC Values) was 16 µg/mL. It also gave an MIC ([2]; MRSA, strain BM12612(new), read-out: MIC Values) of 64 µg/mL, an MIC ([2]; MRSA, strain H1, read-out: MIC Values) of 16 µg/mL and an MIC ([2]; MRSA, strain HIP 5827, read-out: MIC Values) of 64 µg/mL. The MIC ([2]; MRSA, strain HIP 5836, read-out: MIC Values) was 16 µg/mL, the MIC ([2]; MRSA, strain HIP 6297, read-out: MIC Values) was 16 µg/mL and the MIC ([2]; MRSA, strain HIP 7737, read-out: MIC Values) was 32 µg/mL. For the same compound, the MIC ([2]; MRSA, strain JSCC 340, read-out: MIC Values) was 64 µg/mL, the MIC ([2]; MRSA, strain JSCC 351, read-out: MIC Values) was 32 µg/mL and the MIC ([2]; MRSA, strain JSCC 363, read-out: MIC Values) was 16 µg/mL. The MIC ([2]; MRSA, strain JSCC 381, read-out: MIC Values) was 32 µg/mL, the MIC ([2]; MRSA, strain JSCC 390, read-out: MIC Values) was 32 µg/mL and the MIC ([2]; MRSA, strain JSCC 401, read-out: MIC Values) was 128 µg/mL. The MIC ([2]; MRSA, strain JSCC 413, read-out: MIC Values) was 16 µg/mL, the MIC ([2]; MRSA, strain JSCC 431, read-out: MIC Values) was 64 µg/mL and the MIC ([2]; MRSA, strain JSCC 440, read-out: MIC Values) was 32 µg/mL. The MIC ([2]; MRSA, strain JSCC 451, read-out: MIC Values) was 16 µg/mL, the MIC ([2]; MRSA, strain JSCC 463, read-out: MIC Values) was 16 µg/mL and the MIC ([2]; MRSA, strain JSCC 481, read-out: MIC Values) was 64 µg/mL. The MIC ([2]; MRSA, strain JSCC 490, read-out: MIC Values) was 64 µg/mL, the MIC ([2]; MRSA, strain JSCC 501, read-out: MIC Values) was 32 µg/mL and the MIC ([2]; MRSA, strain JSCC 513, read-out: MIC Values) was 16 µg/mL. For the same compound, the MIC ([2]; MRSA, strain JSCC 531, read-out: MIC Values) was 32 µg/mL, the MIC ([2]; MRSA, strain JSCC 540, read-out: MIC Values) was 32 µg/mL and the MIC ([2]; MRSA, strain JSCC 551, read-out: MIC Values) was 16 µg/mL. It also gave an MIC ([2]; MRSA, strain JSCC 563, read-out: MIC Values) of 1 µg/mL, an MIC ([2]; MRSA, strain JSCC 581 (lacks the mecA gene), read-out: MIC Values) of 0.5 µg/mL and an MIC ([2]; MRSA, strain JSCC 590 (lacks the mecA gene), read-out: MIC Values) of 0.5 µg/mL. It also gave an MIC ([2]; MRSA, strain JSCC 601, read-out: MIC Values) of 16 µg/mL, an MIC ([2]; MRSA, strain JSCC 640, read-out: MIC Values) of 16 µg/mL and an MIC ([2]; MRSA, strain JSCC 651, read-out: MIC Values) of 64 µg/mL. For the same compound, the MIC ([2]; MRSA, strain JSCC 663, read-out: MIC Values) was 16 µg/mL, the MIC ([2]; MRSA, strain JSCC 681, read-out: MIC Values) was 16 µg/mL and the MIC ([2]; MRSA, strain JSCC 690, read-out: MIC Values) was 16 µg/mL. It also gave an MIC ([2]; MRSA, strain JSCC 701, read-out: MIC Values) of 32 µg/mL, an MIC ([2]; MRSA, strain JSCC 713, read-out: MIC Values) of 16 µg/mL and an MIC ([2]; MRSA, strain JSCC 731, read-out: MIC Values) of 32 µg/mL. It also gave an MIC ([2]; MRSA, strain JSCC 740, read-out: MIC Values) of 16 µg/mL, an MIC ([2]; MRSA, strain JSCC 751, read-out: MIC Values) of 64 µg/mL and an MIC ([2]; MRSA, strain JSCC 763, read-out: MIC Values) of 8 µg/mL. It also gave an MIC ([2]; MRSA, strain JSCC 781, read-out: MIC Values) of 16 µg/mL, an MIC ([2]; MRSA, strain JSCC 870, read-out: MIC Values) of 32 µg/mL and an MIC ([2]; MRSA, strain LIM 2, read-out: MIC Values) of 32 µg/mL. The MIC ([2]; MRSA, strain Mu 3, read-out: MIC Values) was 32 µg/mL, the MIC ([2]; MRSA, strain Mu 50, read-out: MIC Values) was 32 µg/mL and the MIC ([2]; MRSA, strain N315, read-out: MIC Values) was 8 µg/mL. For the same compound, the MIC ([3]; read-out: MICs 50%) was 32 µg/mL, the MIC ([3]; read-out: MICs 90%) was 64 µg/mL and the “MICs Range” value [3] was 16 to 64 mg/L.

For `CO/N=C(\C(=O)N[C@@H]1C(=O)N2C(C(=O)O)=CCS[C@H]12)c1csc(N)n1` [CZX, ceftizoxime], the “MIC Values” ([1]; strain ATCC 29213, control sample (Ex. 26)) was 8 µg/mL, the “MIC Values” ([1]; strain ATCC29213, control sample (Ex. 37)) was 4 µg/mL and the “MICs 50%” value ([2]; MRSA strains (n = 38)) was over 128 mg/L. The “MICs 90%” value ([2]; MRSA strains (n = 38)) was over 128 mg/L, the “MIC Values” ([2]; strain 85/2082) was over 128 µg/mL and the “MIC Values” ([2]; strain 99.3700W) was over 128 µg/mL. For the same compound, the “MIC Values” ([2]; strain 99.3759V) was over 128 µg/mL, the “MIC Values” ([2]; strain AMC 11094) was over 128 µg/mL and the “MIC Values” ([2]; strain BM12612(new)) was over 128 µg/mL. The “MIC Values” ([2]; strain H1) was 2048 µg/mL, the “MIC Values” ([2]; strain HIP 5827) was over 128 µg/mL and the “MIC Values” ([2]; strain HIP 5836) was over 128 µg/mL. For the same compound, the “MIC Values” ([2]; strain HIP 6297) was over 128 µg/mL, the “MIC Values” ([2]; strain HIP 7737) was over 128 µg/mL and the “MIC Values” ([2]; strain JSCC 340) was over 128 µg/mL. For the same compound, the “MIC Values” ([2]; strain JSCC 351) was over 128 µg/mL, the “MIC Values” ([2]; strain JSCC 363) was over 128 µg/mL and the “MIC Values” ([2]; strain JSCC 381) was over 128 µg/mL. The “MIC Values” ([2]; strain JSCC 390) was over 128 µg/mL, the “MIC Values” ([2]; strain JSCC 401) was over 128 µg/mL and the “MIC Values” ([2]; strain JSCC 413) was over 128 µg/mL. The “MIC Values” ([2]; strain JSCC 431) was over 128 µg/mL, the “MIC Values” ([2]; strain JSCC 440) was over 128 µg/mL and the “MIC Values” ([2]; strain JSCC 451) was over 128 µg/mL. For the same compound, the “MIC Values” ([2]; strain JSCC 463) was over 128 µg/mL, the “MIC Values” ([2]; strain JSCC 481) was over 128 µg/mL and the “MIC Values” ([2]; strain JSCC 490) was over 128 µg/mL. For the same compound, the “MIC Values” ([2]; strain JSCC 501) was over 128 µg/mL, the “MIC Values” ([2]; strain JSCC 513) was over 128 µg/mL and the “MIC Values” ([2]; strain JSCC 531) was over 128 µg/mL. The “MIC Values” ([2]; strain JSCC 540) was over 128 µg/mL, the “MIC Values” ([2]; strain JSCC 551) was over 128 µg/mL and the “MIC Values” ([2]; strain JSCC 563) was 16 µg/mL. For the same compound, the “MIC Values” ([2]; strain JSCC 581 (lacks the mecA gene)) was 16 µg/mL, the “MIC Values” ([2]; strain JSCC 590 (lacks the mecA gene)) was 16 µg/mL and the “MIC Values” ([2]; strain JSCC 601) was over 128 µg/mL. The “MIC Values” ([2]; strain JSCC 640) was over 128 µg/mL, the “MIC Values” ([2]; strain JSCC 651) was over 128 µg/mL and the “MIC Values” ([2]; strain JSCC 663) was over 128 µg/mL. The “MIC Values” ([2]; strain JSCC 681) was over 128 µg/mL, the “MIC Values” ([2]; strain JSCC 690) was over 128 µg/mL and the “MIC Values” ([2]; strain JSCC 701) was over 128 µg/mL. The “MIC Values” ([2]; strain JSCC 713) was over 128 µg/mL, the “MIC Values” ([2]; strain JSCC 731) was over 128 µg/mL and the “MIC Values” ([2]; strain JSCC 740) was over 128 µg/mL. The “MIC Values” ([2]; strain JSCC 751) was over 128 µg/mL, the “MIC Values” ([2]; strain JSCC 763) was over 128 µg/mL and the “MIC Values” ([2]; strain JSCC 781) was over 128 µg/mL. For the same compound, the “MIC Values” ([2]; strain JSCC 870) was over 128 µg/mL, the “MIC Values” ([2]; strain LIM 2) was over 128 µg/mL and the “MIC Values” ([2]; strain Mu 3) was over 128 µg/mL. For the same compound, the “MIC Values” ([2]; strain Mu 50) was over 128 µg/mL, the “MIC Values” ([2]; strain N315) was 64 µg/mL and the “MIC Values” ([2]; strain NCTC 10442) was over 128 µg/mL. The “MICs 50%” value [3] was over 128 mg/L, the “MICs 90%” value [3] was over 128 mg/L and the “MICs Range” value [3] was over 128 mg/L.
